From patent US10945685B2, “System and method for normalizing standardized uptake values in brain positron emission tomography (PET) images” (New York University, priority 2018, dated 2021) come the findings set out here.

Entries after “also recorded” stand apart in the source; their conditions may differ.

Holding throughout (type): in vivo, human
Assay [1] relates to tau. The experiment in a line: AD-NL classification from tau PET: ROC AUC and AD-NL ratio of PBP. The settings on record: temporal lobe.
Assay [2] is described as follows: Off-target binding observed on PET images. The settings on record: observed on PET image. As to the method: (§1) PET imaging was performed using an Eminence STARGATE PET scanner (Shimadzu, Kyoto, Japan). After intravenous injection of ^18F-THK5351 (185 MBq), dynamic PET images were obtained for 60 min. acquisition matrix is 128×128×79 and voxels size is 2×2×2.6 mm. ^18F-THK5351 was synthesized. MRI was performed on all participants. T1 weighted MR images were obtained using a SIGNA 1.5-Tesla machine (General Electric, Milwaukee, Wis.). In T1-weighted MRI, a 3D volumetric acquisition of a T1-weighted gradient echo sequence produced a gapless series of thin axial sections by using a vascular TOF SPGR sequence (echo time/repetition time, 2.4/50 ms; flip angle, 45°; acquisition matrix, 256×256; 1 excitation; field of view, 22 cm; slice thickness, 2.0 mm).
(§2) AV-1451 data were downloaded from ADNI with series description “AV1451 Coreg, Avg, Std Img and Vox Siz, Uniform Resolution”. An intravenous injection of 10 mCi ^18F-AV-1451 (370 MBq) is followed by a saline flush. At approximately 75 minutes following injection, a continuous 30-minute brain scan (6 frames of 5-minute duration) was performed after a CT or transmission scan for attenuation correction. PET imaging was performed using GEMINI TF TOF 16 (Philips Medical Systems), with 6 frames; acquisition matrix 128×128×90; pixel spacing 2×2 mm; slice thickness 2 mm.
Standardized uptake value (SUV) images were obtained by normalizing tissue radioactivity concentration by injected dose and bodyweight. Estimates of tau deposition were determined for THK53151 with the 40-60 min SUV and for AV1451 with for the 80-100 min SUV. Standard SUVR was generated by using cerebellar cortex as reference. To control the variation of SUVR measures in THK5351 and AV1451 PET caused by the off-target binding in reference region, each subject's SUV images were first transferred into standardized SUVP images, using the Peak-alignment method (as described above). […]

The test system of assay [3] is tau. Kind of assay: AD-NL classification from tau PET: ROC AUC and AD-NL ratio of PBP. The settings on record: for AD-NL ratio R = (average PBP of AD group)/(average PBP of NL group), SUVP / AD-NL ratio R = (average PBP of AD group)/(average PBP of NL group), SUVR: Table 5, region not stated; for AD-NL ratio (R), SUVP PBP / AD-NL ratio (R), SUVR PBP: temporal lobe. As to the method: In another embodiment, the average PBP of a particular diseased (or abnormal) group (e.g., an AD group) for a particular ROI may be compared to the PBP of a group of normal control (NL) subjects. For example, a ratio (R) of PBP may be obtained by: R=(average PBP of diseased or abnormal group)/(average PBP of NL group)
(§3) Standardized uptake value (SUV) images were obtained by normalizing tissue radioactivity concentration by injected dose and bodyweight. Estimates of tau deposition were determined for THK53151 with the 40-60 min SUV and for AV1451 with for the 80-100 min SUV. Standard SUVR was generated by using cerebellar cortex as reference. To control the variation of SUVR measures in THK5351 and AV1451 PET caused by the off-target binding in reference region, each subject's SUV images were first transferred into standardized SUVP images, using the Peak-alignment method (as described above). In order to compare the regional SUV distribution patterns on group level, the whole brain probability density function (PDFwb) of SUVP were computed for each subject by normalizing the histograms of a subject's SUVP with the total number of intracranial voxels of that subject. Finally, the group average whole brain probability density function (PDFwb) were computed by averaging the individual subjects' PDFwb within 4 compare groups (2 tracers×2 conditions). One important advantage of SUVP over SUVR is that the Peak-alignment method standardized the range of whole brain SUV (marked in FIG. 2) into [−3,3] approximately, regardless of tracer or disease condition, thus allowing universal cutoff for different tracers, while SUVR cutoffs are tracer-dependent (e.g. 1.5 for THK and 1.19 for AV1451). Here, 1.5 is used for SUVP cutoff, representing 1.5 times std from whole brain mode. The positive binding percentage: PBP=(number of positive bring voxels)/(total number of voxels), are computed for both SUVP and SUVR in different brain tissues.
To compare the classification accuracy of AD and NL using mean SUVR and PBP (SUVR and SUVP), the ROC curve was computed and the area under curve (AUC) was computed.
We also computed the diagnostic accuracy in terms of AUC, as specified in Method section. […] The AD-NL ratio obtained using (average PBP of AD group)/(average PBP of NL group).

Assay [4] has as its system tau. The experiment in a line: Tau PET tracer binding, SUVR with cerebellar cortex as reference, AD patients and NL subjects. The settings on record: mean (SD); for GMSUVR (Cerebral GM tracer retention) / WMSUVR (Cerebral WM tracer retention): all subjects of the tracer (AD and NL). As to the method: Subjects come from two sources. 18 subjects (9 AD patients, and 9 healthy elderly study participants) underwent ^18F-THK5351 PET scans from the memory clinic of Tohoku University Hospital. ^18F-AV-1451 scans were obtained from the ADNI (Alzheimer's Disease Neuroimaging Initiative) database (adni.loni.usc.edu). 32 Subjects (20 NL and 12 AD) with ^18F-AV-1451 were selected from ADNI, that were matched to the age and MMSE in participants of the THK5351 group.
as §1, §2
Using Free-Surfer (V. 5.1, http://surfer.nmr.mgh.harvard.edu) ROI's were determined for the cerebral gray and white matter, the cerebellar hemisphere gray matter, caudate nuclear, thalamus, ponds and subcortical regions (including frontal, parietal, occipital, medial temporal cortex and lateral temporal lobe). MRI T1 images were coregistered to the mean PET images for each participant by using statistical parametric-mapping software (SPM12; Wellcome Department of Imaging Neuroscience, UCL, London, UK).
as §3, with “tissues. […]” for “tissues.”

Take `[18F]c1ccc(-c2ccc3c(c2)[nH]c2ccncc23)cn1` [AV-1451]: the “AD-NL ratio (R), SUVR Mean” value with tau [1] was 1.17. In addition, in assay [2], the “regions with off-target binding” value was “choroidal plexus and substantia nigra; also recorded: cerebral white matter and basal ganglia region”. Also, the “regions with off-target binding” value in assay [2] (listed as AV1451) is given as “cerebellum”. Further, in the assay with tau [3], the “AD-NL ratio R = (average PBP of AD group)/(average PBP of NL group), SUVP” value was found to be 4.4004; the “AD-NL ratio R = (average PBP of AD group)/(average PBP of NL group), SUVR” value turned out to be 1.3258; the “AD-NL ratio (R), SUVP PBP” value turned out to be 3.69; the “AD-NL ratio (R), SUVR PBP” value turned out to be 1.3. Besides, in the assay on tau [4] (AD patients), the “SUVR, Basal ganglia” value was 1.30(.10); the “SUVR, Cerebral GM” value is 1.24(.25)^+; the “SUVR, Cerebral WM” value is given as 1.27(.18); the “SUVR, Frontal cortex” value is reported as 1.18(.23). Moreover, in the assay with tau [4] (AD patients), the “SUVR, Occipital cortex” value is recorded as 1.17(.13); the “SUVR, Parietal cortex” value was 1.25(.30); the “SUVR, Temporal cortex” value is 1.41(.35)*^+. In addition, in the assay with tau [4] (NL subjects), the “SUVR, Basal ganglia” value was 1.30(.09); the “SUVR, Cerebral GM” value is reported as 1.09(.09); the “SUVR, Cerebral WM” value is listed as 1.18(.09); the “SUVR, Frontal cortex” value was 1.06(.07). In addition, in the assay with tau [4] (NL subjects), the “SUVR, Occipital cortex” value is 1.09(.09); the “SUVR, Parietal cortex” value is listed as 1.07(.10); the “SUVR, Temporal cortex” value was 1.18(.16). Also, in the assay with tau [4], the “GMSUVR (Cerebral GM tracer retention)” value was 1.15(0.18) and the “WMSUVR (Cerebral WM tracer retention)” value is reported as 1.21(0.13).
As for `CNc1ccc(-c2ccc3cc(OC[C@H](O)CF)ccc3n2)cn1` [THK5351], in the assay with tau [1], the “AD-NL ratio (R), SUVR Mean” value was found to be 1.18. In addition, the “regions with off-target binding” value in assay [2] is “ponds and Amygdala; also recorded: cerebral white matter and basal ganglia region”. Further, in the assay with tau [3], the “AD-NL ratio R = (average PBP of AD group)/(average PBP of NL group), SUVP” value amounted to 3.1248; the “AD-NL ratio R = (average PBP of AD group)/(average PBP of NL group), SUVR” value is 1.2747; the “AD-NL ratio (R), SUVP PBP” value turned out to be 2.39; the “AD-NL ratio (R), SUVR PBP” value is on record as 1.25. Besides, in the assay on tau [4] (AD patients), the “SUVR, Basal ganglia” value is given as 2.62(.26)^; the “SUVR, Cerebral GM” value was 1.55(.16)^+; the “SUVR, Cerebral WM” value was 1.78(.14)^+; the “SUVR, Frontal cortex” value is 1.38(.18). Further, in the assay with tau [4] (AD patients), the “SUVR, Occipital cortex” value was 1.42(.16)^+; the “SUVR, Parietal cortex” value is reported as 1.46(.12); the “SUVR, Temporal cortex” value is reported as 1.88(.22)*^+. Moreover, in the assay on tau [4] (NL subjects), the “SUVR, Basal ganglia” value was 2.64(.31); the “SUVR, Cerebral GM” value is 1.39(.20); the “SUVR, Cerebral WM” value is on record as 1.56(.20); the “SUVR, Frontal cortex” value is 1.32(.20). Besides, in the assay with tau [4] (NL subjects), the “SUVR, Occipital cortex” value was 1.22(.13); the “SUVR, Parietal cortex” value is on record as 1.30(.24); the “SUVR, Temporal cortex” value is 1.57(.21). Also, in the assay with tau [4], the “GMSUVR (Cerebral GM tracer retention)” value is 1.47(0.19) and the “WMSUVR (Cerebral WM tracer retention)” value was 1.67(0.20).
